Laboratory results as given in patent US9809573B2, “Substituted pyridine derivatives useful as GSK-3 inhibitors” (priority 2013, dated 2017).
Read-outs that look alike come from different tables or passages of the source.

Key:
GSK3β = GSK3β (Homo sapiens, UniProt P49841); experiment: GSK3β kinase assay (Caliper LabChip3000, fluoresceinated peptide substrate); format: biochemical
Procedure: (§1) The kinase assay was performed in V-bottom 384-well plates. […] The reaction was incubated at room temperature for 20 hours and terminated by adding 45 μl of 35 mM EDTA to each sample. The reaction mixture was analyzed on the Caliper LabChip3000 (Caliper, Hopkinton, Mass.) by electrophoretic separation of the unphosphorylated substrate and phosphorylated product. […] Compounds were dissolved at 10 mM in dimethylsulfoxide (DMSO) and evaluated at eleven concentrations. IC50 values were derived by non-linear regression analysis.

GSK3α = GSK3α (Homo sapiens, UniProt P49840); experiment: biochemical
Procedure: as §1

[1] = first value of the cell, 250 pM enzyme, 20 uM ATP, 20 hours at room temperature, read-out: GSK3β/α (nM): GSK3β IC50
[2] = second value of the cell, 250 pM enzyme, 20 uM ATP, 20 hours at room temperature, read-out: GSK3β/α (nM): GSK3α IC50

Chain of GSK3α (P49840 whole entry, species assumed): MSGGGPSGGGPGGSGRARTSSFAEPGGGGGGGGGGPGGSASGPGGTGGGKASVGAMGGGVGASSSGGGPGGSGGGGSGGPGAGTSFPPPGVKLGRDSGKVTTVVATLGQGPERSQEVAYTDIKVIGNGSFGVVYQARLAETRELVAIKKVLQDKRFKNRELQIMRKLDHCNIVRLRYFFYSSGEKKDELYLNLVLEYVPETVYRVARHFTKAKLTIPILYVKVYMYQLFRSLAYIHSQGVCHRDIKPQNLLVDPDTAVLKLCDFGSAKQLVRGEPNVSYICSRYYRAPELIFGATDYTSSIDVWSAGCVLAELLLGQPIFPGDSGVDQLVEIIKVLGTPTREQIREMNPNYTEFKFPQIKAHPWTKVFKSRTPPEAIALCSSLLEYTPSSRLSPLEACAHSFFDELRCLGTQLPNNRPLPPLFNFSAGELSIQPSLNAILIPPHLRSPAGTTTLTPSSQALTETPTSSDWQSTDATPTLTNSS
Chain of GSK3β (P49841 whole entry, species assumed): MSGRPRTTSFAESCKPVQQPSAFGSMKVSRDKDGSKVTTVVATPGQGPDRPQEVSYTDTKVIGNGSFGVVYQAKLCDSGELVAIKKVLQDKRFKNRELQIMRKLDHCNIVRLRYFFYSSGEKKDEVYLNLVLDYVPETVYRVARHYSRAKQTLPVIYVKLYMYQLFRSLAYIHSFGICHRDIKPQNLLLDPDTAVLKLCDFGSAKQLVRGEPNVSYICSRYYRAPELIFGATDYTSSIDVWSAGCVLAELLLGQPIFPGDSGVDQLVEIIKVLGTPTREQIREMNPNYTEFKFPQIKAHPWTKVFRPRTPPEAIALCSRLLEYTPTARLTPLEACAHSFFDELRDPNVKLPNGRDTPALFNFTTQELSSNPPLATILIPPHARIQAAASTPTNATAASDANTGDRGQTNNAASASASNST

Compound: 2-((1,3-Cis)-3-chlorocyclobutanecarboxamido)-N-(4-phenylpyridin-3-yl)isonicotinamide [Example 221]
- IC50 (GSK3β; [1]): 0.16 nM
- IC50 (GSK3α; [2]): 0.09 nM

Compound: 2-((1,3-Trans)-3-chlorocyclobutanecarboxamido)-N-(4-phenylpyridin-3-yl)isonicotinamide [Example 220]
- IC50 (GSK3β; [1]): 0.37 nM
- IC50 (GSK3α; [2]): 0.22 nM

Compound: O=C(Nc1cncc2c1CCCC2)c1ccnc(NC(=O)C2CC2)c1 [Example 21, 2-(Cyclopropanecarboxamido)-N-(5,6,7,8-tetrahydroisoquinolin-4-yl)isonicotinamide]
- IC50 (GSK3β; [1]): 13 nM
- IC50 (GSK3α; [2]): 3.3 nM

Compound: O=C(Nc1cnccc1-c1ccc(C(F)(F)F)cc1C(F)(F)F)c1ccnc(NC(=O)C2CC2)c1 [Example 65, N-(4-(2,4-bis(trifluoromethyl)phenyl)pyridin-3-yl)-2-(cyclopropanecarboxamido)isonicotinamide]
- IC50 (GSK3β; [1]): 29 nM
- IC50 (GSK3α; [2]): 25 nM

Compound: N#Cc1cc(F)ccc1-c1ccncc1NC(=O)c1ccnc(NC(=O)C2CC2)c1 [Example 89, N-(4-(2-cyano-4-fluorophenyl)pyridin-3-yl)-2-(cyclopropanecarboxamido)isonicotinamide]
- IC50 (GSK3β; [1]): 470 nM
- IC50 (GSK3α; [2]): 190 nM

Compound: O=C(Nc1cncc(-c2ccsc2)c1)c1ccnc(NC(=O)C2CC2)c1 [Example 117, 2-(cyclopropanecarboxamido)-N-(5-(thiophen-3-yl)pyridin-3-yl)isonicotinamide]
- IC50 (GSK3β; [1]): 1.2 nM
- IC50 (GSK3α; [2]): 1.9 nM

Compound: O=C(Nc1cncc(-c2ccoc2)c1)c1ccnc(NC(=O)C2CC2)c1 [Example 121, 2-(cyclopropanecarboxamido)-N-(5-(furan-3-yl)pyridin-3-yl)isonicotinamide]
- IC50 (GSK3β; [1]): 2.4 nM
- IC50 (GSK3α; [2]): 0.99 nM

Compound: Cc1ccccc1-c1cncc(NC(=O)c2ccnc(NC(=O)C3CC3)c2)c1 [Example 122, 2-(cyclopropanecarboxamido)-N-(5-(o-tolyl)pyridin-3-yl)isonicotinamide]
- IC50 (GSK3β; [1]): 7.3 nM
- IC50 (GSK3α; [2]): 3.3 nM

Compound: O=C(Nc1cncc(-c2cccnc2)c1)c1ccnc(NC(=O)C2CC2)c1 [Example 125, N-([3,3′-bipyridin]-5-yl)-2-(cyclopropanecarboxamido)isonicotinamide]
- IC50 (GSK3β; [1]): 2 nM
- IC50 (GSK3α; [2]): 0.86 nM

Compound: O=C(Nc1cncc(-c2cccc(F)c2)c1)c1ccnc(NC(=O)C2CC2)c1 [Example 126, 2-(cyclopropanecarboxamido)-N-(5-(3-fluorophenyl)pyridin-3-yl)isonicotinamide]
- IC50 (GSK3β; [1]): 2.5 nM
- IC50 (GSK3α; [2]): 1.1 nM

Compound: O=C(Nc1cncc(-c2ccccc2Cl)c1)c1ccnc(NC(=O)C2CC2)c1 [Example 127, N-(5-(2-chlorophenyl)pyridin-3-yl)-2-(cyclopropanecarboxamido)isonicotinamide]
- IC50 (GSK3β; [1]): 1.3 nM
- IC50 (GSK3α; [2]): 0.54 nM

Compound: O=C(Nc1cncc(-c2ccccn2)c1)c1ccnc(NC(=O)C2CC2)c1 [Example 128, N-([2,3′-bipyridin]-5′-yl)-2-(cyclopropanecarboxamido)isonicotinamide]
- IC50 (GSK3β; [1]): 0.5 nM
- IC50 (GSK3α; [2]): 2.6 nM

Compound: O=C(Nc1cncc(-c2csc3ccccc23)c1)c1ccnc(NC(=O)C2CC2)c1 [Example 129]
- IC50 (GSK3β; [1]): 5.1 nM
- IC50 (GSK3α; [2]): 7 nM

Compound: Cc1cscc1-c1cncc(NC(=O)c2ccnc(NC(=O)C3CC3)c2)c1 [Example 130, 2-(cyclopropanecarboxamido)-N-(5-(4-methylthiophen-3-yl)pyridin-3-yl)isonicotinamide]
- IC50 (GSK3β; [1]): 2.5 nM
- IC50 (GSK3α; [2]): 0.41 nM

Compound: N#Cc1cscc1-c1cncc(NC(=O)c2ccnc(NC(=O)C3CC3)c2)c1 [Example 131, N-(5-(4-cyanothiophen-3-yl)pyridin-3-yl)-2-(cyclopropanecarboxamido)isonicotinamide]
- IC50 (GSK3β; [1]): 0.41 nM
- IC50 (GSK3α; [2]): 0.76 nM

Compound: O=C(Nc1cncc(C2CCCC2)c1)c1ccnc(NC(=O)C2CC2)c1 [Example 132, N-(5-cyclopentylpyridin-3-yl)-2-(cyclopropanecarboxamido)isonicotinamide]
- IC50 (GSK3β; [1]): 4.1 nM
- IC50 (GSK3α; [2]): 8 nM

Compound: O=C(Nc1cncc(-c2ccc(Cl)cc2)c1)c1ccnc(NC(=O)C2CC2)c1 [Example 133, N-(5-(4-chlorophenyl)pyridin-3-yl)-2-(cyclopropanecarboxamido)isonicotinamide]
- IC50 (GSK3β; [1]): 3.3 nM
- IC50 (GSK3α; [2]): 4.4 nM

Compound: CC(C)c1ccccc1-c1cncc(NC(=O)c2ccnc(NC(=O)C3CC3)c2)c1 [Example 134, 2-(cyclopropanecarboxamido)-N-(5-(2-isopropylphenyl)pyridin-3-yl)isonicotinamide]
- IC50 (GSK3β; [1]): 2.7 nM

Compound: Cc1cc(-c2cncc(NC(=O)c3ccnc(NC(=O)C4CC4)c3)c2)c(C)s1 [Example 135, 2-(cyclopropanecarboxamido)-N-(5-(2,5-dimethylthiophen-3-yl)pyridin-3-yl)isonicotinamide]
- IC50 (GSK3β; [1]): 2.7 nM

Compound: CC(C)Oc1ccccc1-c1cncc(NC(=O)c2ccnc(NC(=O)C3CC3)c2)c1 [Example 136, 2-(cyclopropanecarboxamido)-N-(5-(2-isopropoxyphenyl)pyridin-3-yl)isonicotinamide]
- IC50 (GSK3β; [1]): 19 nM
- IC50 (GSK3α; [2]): 5.4 nM

Compound: O=C(Nc1cncc(-c2cccc(F)c2F)c1)c1ccnc(NC(=O)C2CC2)c1 [Example 137, 2-(cyclopropanecarboxamido)-N-(5-(2,3-difluorophenyl)pyridin-3-yl)isonicotinamide]
- IC50 (GSK3β): 3.4 nM
- IC50 (GSK3α): 0.74 nM

Compound: O=C(Nc1cncc(-c2cccc(Cl)c2Cl)c1)c1ccnc(NC(=O)C2CC2)c1 [Example 138, 2-(cyclopropanecarboxamido)-N-(5-(2,3-dichlorophenyl)pyridin-3-yl)isonicotinamide]
- IC50 (GSK3β; [1]): 10.5 nM
- IC50 (GSK3α; [2]): 1.8 nM

Compound: COc1cccc(-c2cncc(NC(=O)c3ccnc(NC(=O)C4CC4)c3)c2)c1F [Example 139, 2-(cyclopropanecarboxamido)-N-(5-(2-fluoro-3-methoxyphenyl)pyridin-3-yl)isonicotinamide]
- IC50 (GSK3β): 3.7 nM
- IC50 (GSK3α; [2]): 0.81 nM

Compound: O=C(Nc1cncc(-c2cccc(Cl)c2F)c1)c1ccnc(NC(=O)C2CC2)c1 [Example 140, N-(5-(3-chloro-2-fluorophenyl)pyridin-3-yl)-2-(cyclopropanecarboxamido)isonicotinamide]
- IC50 (GSK3β; [1]): 13 nM
- IC50 (GSK3α; [2]): 2.8 nM

Compound: O=C(Nc1cncc(-c2c(F)cccc2F)c1)c1ccnc(NC(=O)C2CC2)c1 [Example 141, 2-(cyclopropanecarboxamido)-N-(5-(2,6-difluorophenyl)pyridin-3-yl)isonicotinamide]
- IC50 (GSK3β; [1]): 21 nM
- IC50 (GSK3α; [2]): 4.3 nM

Compound: O=C(Nc1cncc(-c2cccc3cccnc23)c1)c1ccnc(NC(=O)C2CC2)c1 [Example 143, 2-(cyclopropanecarboxamido)-N-(5-(quinolin-8-yl)pyridin-3-yl)isonicotinamide]
- IC50 (GSK3β; [1]): 190 nM
- IC50 (GSK3α; [2]): 35 nM

Compound: CC(=O)c1ccccc1-c1cncc(NC(=O)c2ccnc(NC(=O)C3CC3)c2)c1 [Example 144, N-(5-(2-acetylphenyl)pyridin-3-yl)-2-(cyclopropanecarboxamido)isonicotinamide]
- IC50 (GSK3β; [1]): 55 nM
- IC50 (GSK3α; [2]): 15 nM

Compound: CCCOc1ccccc1-c1cncc(NC(=O)c2ccnc(NC(=O)C3CC3)c2)c1 [Example 146, 2-(cyclopropanecarboxamido)-N-(5-(2-propoxyphenyl)pyridin-3-yl)isonicotinamide]
- IC50 (GSK3β; [1]): 4.5 nM
- IC50 (GSK3α; [2]): 3.4 nM

Compound: O=C(Nc1cncc(-c2ccccc2OC(F)(F)F)c1)c1ccnc(NC(=O)C2CC2)c1 [Example 149, 2-(cyclopropanecarboxamido)-N-(5-(2-(trifluoromethoxy)phenyl)pyridin-3-yl)isonicotinamide]
- IC50 (GSK3β; [1]): 8.5 nM
- IC50 (GSK3α; [2]): 1.75 nM

Compound: O=C(Nc1cncc(C(F)(F)F)c1)c1ccnc(NC(=O)C2CC2)c1 [Example 150, 2-(cyclopropanecarboxamido)-N-(5-(trifluoromethyl)pyridin-3-yl)isonicotinamide]
- IC50 (GSK3β; [1]): 88 nM
- IC50 (GSK3α; [2]): 17 nM

Compound: Cn1cc(-c2cncc(NC(=O)c3ccnc(NC(=O)C4CC4)c3)c2)cn1 [Example 152, 2-(cyclopropanecarboxamido)-N-(5-(1-methyl-1H-pyrazol-4-yl)pyridin-3-yl)isonicotinamid]
- IC50 (GSK3β; [1]): 4.9 nM
- IC50 (GSK3α; [2]): 1.4 nM

Compound: O=C(Nc1cncc(-c2cc(Cl)ccc2F)c1)c1ccnc(NC(=O)C2CC2)c1 [Example 153, N-(5-(5-chloro-2-fluorophenyl)pyridin-3-yl)-2-(cyclopropanecarboxamido)isonicotinamide]
- IC50 (GSK3β; [1]): 5.3 nM
- IC50 (GSK3α; [2]): 1.6 nM

Compound: CN(C)c1ccccc1-c1cncc(NC(=O)c2ccnc(NC(=O)C3CC3)c2)c1 [Example 154, 2-(cyclopropanecarboxamido)-N-(5-(2-(dimethylamino)phenyl)pyridin-3-yl)isonicotinamide]
- IC50 (GSK3β; [1]): 40 nM
- IC50 (GSK3α; [2]): 18 nM

Compound: Cc1ncc(-c2cncc(NC(=O)c3ccnc(NC(=O)C4CC4)c3)c2)s1 [Example 159, 2-(cyclopropanecarboxamido)-N-(5-(2-methylthiazol-5-yl)pyridin-3-yl)isonicotinamide]
- IC50 (GSK3β; [1]): 4.7 nM
- IC50 (GSK3α; [2]): 1.9 nM

Compound: O=C(Nc1cnccc1-c1ccccc1)c1ccnc(NC(=O)C2CC(Cl)C2)c1 (stereo not shown) [Example 215, 2-(3-Cholorocyclobutanecarboxamido)-N-(4-phenylpyridin-3-yl)isonicotinamide]
- IC50 (GSK3β; [1]): 0.4 nM
- IC50 (GSK3α; [2]): 0.25 nM

Compound: O=C1CC(C(=O)Nc2cc(C(=O)Nc3cnccc3-c3ccccc3)ccn2)C1 [Example 218, 2-(3-Oxocyclobutanecarboxamido)-N-(4-phenylpyridin-3-yl)isonicotinamide]
- IC50 (GSK3β; [1]): 3.9 nM

Compound: O=C1CCC(C(=O)Nc2cc(C(=O)Nc3cnccc3-c3ccccc3)ccn2)C1 (stereo not shown) [Example 229, 2-(3-Oxocyclopentanecarboxamido)-N-(4-phenylpyridin-3-yl)isonicotinamide]
- IC50 (GSK3β; [1]): 1.6 nM
